Experimental data: ChEMBL document CHEMBL3885861, “Open TG-GATES”

Species: Rattus norvegicus
Test: Open TG-GATES - Regimen: Daily Repeat
Assay type: toxicity, organism-based, Sprague-Dawley
Parameters: regimen Daily Repeat, gender Male, age 6 weeks
Conditions: in vivo, po, 10 mg/kg, route gavage, dose level Low; for APTT / Bas / Eos / Fbg / Hb / Ht / Lym / MCH / MCHC / MCV / Mono / Neu / PT / Plat / RBC / Ret / WBC: tissue Blood; for KIDNEY_L / KIDNEY_R / KIDNEY_TOTAL: tissue Kidney; for LIVER: tissue Liver; for A/G / ALP / ALT / AST / BUN / CRE / Ca / Cl / DBIL / GLC / IP / K / LDH / Na / PL / RALB / TBIL / TC / TG / TP / gamma-GTP: tissue Plasma

Work on `CCC1(c2ccccc2)C(=O)NC(=O)NC1=O` [PHENOBARBITAL] yielded a TERMINAL_BW (72 h, time 3 day) of 224.1 g, an APTT (72 h, time 3 day) of 15.6 s and a Bas (72 h, time 3 day) of 0%. The Eos (72 h, time 3 day) was 1%, the Fbg (72 h, time 3 day) was 226.8 mg/dL and the Hb (72 h, time 3 day) was 13.3 g/dL. It also gave a Ht (72 h, time 3 day) of 39.6%, a Lym (72 h, time 3 day) of 71.6% and an MCH (72 h, time 3 day) of 22 pg. For the same molecule, the MCHC (72 h, time 3 day) was 33.6%, the MCV (72 h, time 3 day) was 65.5 fL and the Mono (72 h, time 3 day) was 11.4%. The Neu (72 h, time 3 day) was 16.4%, the PT (72 h, time 3 day) was 11.9 s and the Plat (72 h, time 3 day) was 126.7 x10_4/uL. It also gave an RBC (72 h, time 3 day) of 605.2 x10_4/ul, a Ret (72 h, time 3 day) of 7.9% and a WBC (72 h, time 3 day) of 126 x10_2/uL. It also gave a KIDNEY_L (72 h, time 3 day) of 1 g, a KIDNEY_R (72 h, time 3 day) of 1 g and a KIDNEY_TOTAL (72 h, time 3 day) of 2 g. The LIVER (72 h, time 3 day) was 12 g, the A/G (72 h, time 3 day) was 1.5 and the ALP (72 h, time 3 day) was 757.2 IU/L. The ALT (72 h, time 3 day) was 34.6 IU/L, the AST (72 h, time 3 day) was 61.6 IU/L and the BUN (72 h, time 3 day) was 15.2 mg/dL. The CRE (72 h, time 3 day) was 0.5 mg/dL, the Ca (72 h, time 3 day) was 10.6 mg/dL and the Cl (72 h, time 3 day) was 106.6 meq/L. It also gave a DBIL (72 h, time 3 day) of 0.018 mg/dL, a GLC (72 h, time 3 day) of 197.2 mg/dL and an IP (72 h, time 3 day) of 8.3 mg/dL. The K (72 h, time 3 day) was 4.8 meq/L, the LDH (72 h, time 3 day) was 106.8 IU/L and the Na (72 h, time 3 day) was 139 meq/L. It also gave a PL (72 h, time 3 day) of 147.8 mg/dL, an RALB (72 h, time 3 day) of 3.5 g/dL and a TBIL (72 h, time 3 day) of 0.3 mg/dL. For the same molecule, the TC (72 h, time 3 day) was 83.4 mg/dL, the TG (72 h, time 3 day) was 104.8 mg/dL and the TP (72 h, time 3 day) was 5.8 g/dL. The gamma-GTP (72 h, time 3 day) was 1.6 IU/L, the TERMINAL_BW ([…], time 7 day) was 253.6 g and the TERMINAL_BW ([…], time 14 day) was 311.1 g. It also gave a TERMINAL_BW ([…], time 28 day) of 391.1 g, an APTT ([…], time 7 day) of 16.3 s and a Bas ([…], time 7 day) of 0%. The Eos ([…], time 7 day) was 1%, the Fbg ([…], time 7 day) was 236 mg/dL and the Hb ([…], time 7 day) was 13.8 g/dL. For the same molecule, the Ht ([…], time 7 day) was 41.2%, the Lym ([…], time 7 day) was 80.6% and the MCH ([…], time 7 day) was 21.8 pg. For the same molecule, the MCHC ([…], time 7 day) was 33.4%, the MCV ([…], time 7 day) was 65.2 fL and the Mono ([…], time 7 day) was 3%. It also gave a Neu ([…], time 7 day) of 15.4%, a PT ([…], time 7 day) of 11.6 s and a Plat ([…], time 7 day) of 113.9 x10_4/uL. It also gave an RBC ([…], time 7 day) of 632.6 x10_4/ul, a Ret ([…], time 7 day) of 6.6% and a WBC ([…], time 7 day) of 95.6 x10_2/uL. It also gave an APTT ([…], time 14 day) of 16.6 s, a Bas ([…], time 14 day) of 0% and an Eos ([…], time 14 day) of 0.2%. The Fbg ([…], time 14 day) was 234.6 mg/dL, the Hb ([…], time 14 day) was 15 g/dL and the Ht ([…], time 14 day) was 45.1%. For the same molecule, the Lym ([…], time 14 day) was 84.6%, the MCH ([…], time 14 day) was 20.6 pg and the MCHC ([…], time 14 day) was 33.3%. The MCV ([…], time 14 day) was 61.7 fL, the Mono ([…], time 14 day) was 5.8% and the Neu ([…], time 14 day) was 9.6%. It also gave a PT ([…], time 14 day) of 11.4 s, a Plat ([…], time 14 day) of 114.1 x10_4/uL and an RBC ([…], time 14 day) of 731.2 x10_4/ul. For the same molecule, the Ret ([…], time 14 day) was 5%, the WBC ([…], time 14 day) was 141.4 x10_2/uL and the APTT ([…], time 28 day) was 17.6 s. It also gave a Bas ([…], time 28 day) of 0%, an Eos ([…], time 28 day) of 1% and a Fbg ([…], time 28 day) of 226.6 mg/dL. For the same molecule, the Hb ([…], time 28 day) was 15 g/dL, the Ht ([…], time 28 day) was 43.9% and the Lym ([…], time 28 day) was 86.6%. The MCH ([…], time 28 day) was 20.1 pg, the MCHC ([…], time 28 day) was 34.1% and the MCV ([…], time 28 day) was 58.9 fL. For the same molecule, the Mono ([…], time 28 day) was 3.8%, the Neu ([…], time 28 day) was 8.8% and the PT ([…], time 28 day) was 12.1 s. The Plat ([…], time 28 day) was 97.5 x10_4/uL, the RBC ([…], time 28 day) was 746 x10_4/ul and the Ret ([…], time 28 day) was 2.9%. The WBC ([…], time 28 day) was 114.8 x10_2/uL, the KIDNEY_L ([…], time 7 day) was 1.1 g and the KIDNEY_R ([…], time 7 day) was 1.1 g. The KIDNEY_TOTAL ([…], time 7 day) was 2.1 g, the KIDNEY_L ([…], time 14 day) was 1.2 g and the KIDNEY_R ([…], time 14 day) was 1.2 g. The KIDNEY_TOTAL ([…], time 14 day) was 2.3 g, the KIDNEY_L ([…], time 28 day) was 1.4 g and the KIDNEY_R ([…], time 28 day) was 1.3 g. For the same molecule, the KIDNEY_TOTAL ([…], time 28 day) was 2.7 g, the LIVER ([…], time 7 day) was 13.7 g and the LIVER ([…], time 14 day) was 15.6 g. For the same molecule, the LIVER ([…], time 28 day) was 16.8 g, the A/G ([…], time 7 day) was 1.5 and the ALP ([…], time 7 day) was 686.4 IU/L. The ALT ([…], time 7 day) was 28 IU/L, the AST ([…], time 7 day) was 57 IU/L and the BUN ([…], time 7 day) was 18.4 mg/dL. The CRE ([…], time 7 day) was 0.6 mg/dL, the Ca ([…], time 7 day) was 10.9 mg/dL and the Cl ([…], time 7 day) was 105.2 meq/L. For the same molecule, the DBIL ([…], time 7 day) was 0.034 mg/dL, the GLC ([…], time 7 day) was 210 mg/dL and the IP ([…], time 7 day) was 8.5 mg/dL. The K ([…], time 7 day) was 4.7 meq/L, the LDH ([…], time 7 day) was 86.8 IU/L and the Na ([…], time 7 day) was 139.6 meq/L. The PL ([…], time 7 day) was 161.2 mg/dL, the RALB ([…], time 7 day) was 3.6 g/dL and the TBIL ([…], time 7 day) was 0.4 mg/dL. For the same molecule, the TC ([…], time 7 day) was 82.4 mg/dL, the TG ([…], time 7 day) was 129.2 mg/dL and the TP ([…], time 7 day) was 6 g/dL. The gamma-GTP ([…], time 7 day) was 1.2 IU/L, the A/G ([…], time 14 day) was 1.6 and the ALP ([…], time 14 day) was 858.8 IU/L. It also gave an ALT ([…], time 14 day) of 33.8 IU/L, an AST ([…], time 14 day) of 63.2 IU/L and a BUN ([…], time 14 day) of 17.8 mg/dL. For the same molecule, the CRE ([…], time 14 day) was 0.6 mg/dL, the Ca ([…], time 14 day) was 11.3 mg/dL and the Cl ([…], time 14 day) was 106 meq/L. The DBIL ([…], time 14 day) was 0.004 mg/dL, the GLC ([…], time 14 day) was 193.8 mg/dL and the IP ([…], time 14 day) was 9.1 mg/dL. For the same molecule, the K ([…], time 14 day) was 4.7 meq/L, the LDH ([…], time 14 day) was 100 IU/L and the Na ([…], time 14 day) was 141.6 meq/L. For the same molecule, the PL ([…], time 14 day) was 162.8 mg/dL, the RALB ([…], time 14 day) was 4 g/dL and the TBIL ([…], time 14 day) was 0.2 mg/dL. It also gave a TC ([…], time 14 day) of 83.8 mg/dL, a TG ([…], time 14 day) of 127.6 mg/dL and a TP ([…], time 14 day) of 6.6 g/dL. For the same molecule, the gamma-GTP ([…], time 14 day) was 1 IU/L, the A/G ([…], time 28 day) was 1.6 and the ALP ([…], time 28 day) was 707.4 IU/L. For the same molecule, the ALT ([…], time 28 day) was 29.6 IU/L, the AST ([…], time 28 day) was 56.2 IU/L and the BUN ([…], time 28 day) was 21.6 mg/dL. The CRE ([…], time 28 day) was 0.3 mg/dL, the Ca ([…], time 28 day) was 10.3 mg/dL and the Cl ([…], time 28 day) was 108.4 meq/L. It also gave a DBIL ([…], time 28 day) of 0.026 mg/dL, a GLC ([…], time 28 day) of 195.8 mg/dL and an IP ([…], time 28 day) of 7.4 mg/dL. The K ([…], time 28 day) was 5 meq/L, the LDH ([…], time 28 day) was 84.2 IU/L and the Na ([…], time 28 day) was 139.8 meq/L. The PL ([…], time 28 day) was 148 mg/dL, the RALB ([…], time 28 day) was 3.9 g/dL and the TBIL ([…], time 28 day) was 0.4 mg/dL. For the same molecule, the TC ([…], time 28 day) was 69.6 mg/dL, the TG ([…], time 28 day) was 164.4 mg/dL and the TP ([…], time 28 day) was 6.3 g/dL. It also gave a gamma-GTP ([…], time 28 day) of 1.4 IU/L.
